US20220082578A1, “METHOD OF Q[…]'S MAIN METABOLITES, PSILOCIN AND 4-HYDROXYINDOLE-3-ACETIC ACID, IN HUMAN PLASMA” (Universitätsspital Basel, priority 2020, published 2022)
Read-outs that look alike come from different tables or passages of the source.

Key:
[1] = Stability of psilocin and 4-HIAA in plasma under different storage conditions; assay type: physicochemical; details: human plasma, frozen at −20° C., thawed at room temperature
Procedure: The stability of psilocin and 4-HIAA in plasma were investigated under different storage conditions. Seven replicates of LLOQ, QCLOW, QCMID, and QCHIGH samples were stored for 8 hours at room temperature (bench-top stability) and for 1 month at −20° C. (one-month stability). Moreover, the stability was assessed after three consecutive freeze and thaw cycles (freeze/thaw stability), thereby freezing the QC samples at −20° C. for at least 24 hours and thawing them afterwards at room temperature. The concentration of those stability test samples was calculated based on a freshly prepared calibration line. Samples were designated to be stable if the accuracy was between 85-115% (LLOQ: 80-120%) and the precision ≤15% (LLOQ: ≤20%).

[2] = Pharmacokinetics of psilocin and 4-HIAA in plasma of healthy volunteers after a single oral dose of 25 mg psilocybin (LC-MS/MS); assay type: in vivo, human; details: for Cmax / Tmax / AUC(0-t) / half-life: human; for Cmax / Tmax: po, 25 mg; for AUCLAST relative to AUCLAST of psilocin: 0-420 min
Procedure: To examine the application of the developed method, psilocin and 4-HIAA concentrations were quantified in plasma samples of three healthy volunteers receiving a single oral dose of 25 mg psilocybin. This is a moderate to high dose currently used in clinical phase 2-3 studies. The study was approved by the Ethical Committee of Northwestern and Central Switzerland (EKNZ, BASEC ID: 2019-00223), registered at ClinicalTrials.gov (ID: NCT03912974), and conducted in accordance with the Declaration of Helsinki and International Conference on Harmonization Guidelines in Good Clinical Practice. All volunteers provided written informed consent prior to study participation.
To establish concentration time profiles, blood samples were collected in lithium heparin coated tubes at the following time points: 2 hours before and 0, 15, 30, 45, 60, 90, 120, 150, 180, 240, 300, 360, and 420 minutes after treatment. Blood samples were centrifuged for 10 minutes at 3000 rpm to obtain plasma, which was transferred into cryotubes. All samples were stored −80° C. until analysis.
Study, calibration, and QC samples were processed as described before. In addition, the total amount of glucuronide conjugated psilocin and 4-HIAA was determined similar to the protocol of Kamata et al. (2006). In brief, 5 μl of Escherichia coli deglucuronidase (3000 units/ml in water) was mixed with 50 μl plasma sample. An aliquot of 100 μl acetic acid buffer (0.1 M) was added to the mixture. The samples were incubated for 3 hours at 37° C. in a thermomixer (Eppendorf, Hamburg, Germany). Enzymatic reaction was terminated, and samples extracted by the addition of 150 μl methanol. The samples were vortex mixed and centrifuged as outlined above.
For each analytical run, a calibration line was analysed at the beginning and at the end of the measurements. In between, the study samples of the three volunteers were measured as well as triplicates of LLOQ, QCLOW, QCMID, and QCHIGH samples. Samples with a concentration below the LLOQ were marked as blq (below limit of quantification) and samples with concentrations above the ULOQ were diluted with blank plasma into the calibration range.
The concentration-time profile was plotted and the maximal plasma concentration (Cmax) and time to reach it (Tmax) were obtained graphically from the plots. Pharmacokinetic parameters were calculated using non-compartmental methods in Phoenix WinNonlin 8.3 (Certara, N.J., USA). The area under the plasma concentration time profile was calculated by using the linear trapezoidal rule from 0-420 min (AUCLAST). The elimination half-life (t1/2) was calculated by the equation
where the elimination rate constant (λ) was the slope of log(C(t)) versus t determined in the terminal elimination phase.

[3] = cited from earlier work
[4] = plasma, average of three healthy volunteers, oral 25 mg psilocybin, read-out: maximal plasma level (Cmax)
[5] = plasma, plasma, three healthy volunteers, oral dose of 25 mg psilocybin, read-out: Cmax ± SD
[6] = plasma, three healthy volunteers, oral dose of 25 mg psilocybin
[7] = area under the plasma concentration time curve until 7 h post treatment, oral 25 mg psilocybin
[8] = after oral administration of psilocybin

Compound	accuracy of QC samples after three freeze and thaw cycles [1]	Cmax [2, 4] [ng/mL]	Cmax [2, 5] [ng/mL]	Tmax [2, 6] [h]	AUC(0-t) [2, 7] [ng·h/mL]	half-life [2, 6] [h]	AUCLAST relative to AUCLAST of psilocin ([2]; oral 25 mg psilocybin)	Tmax ± SD [2, 6]	plasma concentration (not detectable at limit of detection) ([2]; plasma of volunteers who received 25 mg psilocybin) [ng/mL]	AUClast [2, 7] [ng·min/mL]	maximal plasma level (Cmax) ([2]; average of three healthy volunteers, oral 25 mg psilocybin) [ng/mL]	t1/2 [2, 6] [h]	Tmax ± SD ([2]; plasma, three healthy volunteers, oral dose of 25 mg psilocybin, listed as Psilocin-glucuronide) [h]	elimination half-life [3, 8] [h]	peak concentrations in plasma [3, 8] [ng/mL]	time to peak plasma concentration [3, 8] [h]	fraction excreted from body as psilocin-O-glucuronide ([3]; in vivo) [%]	glucuronide conjugation in plasma ([2]; samples reanalysed after deglucuronidation with Escherichia coli glucuronidase)
O=C(O)Cc1c[nH]c2cccc(O)c12 [4-HIAA, 4-hydroxyindole-3-acetic acid]	100-109%	137	137 ± 22	2 to 2.33	372	2.32	about 5 fold	2 ± 1 h										
OCCc1c[nH]c2cccc(O)c12 [4-HTP, 4-hydroxytryptophol]									< 2.5									
CN(C)CCc1c[nH]c2cccc(O[C@@H]3O[C@H](C(=O)O)[C@@H](O)[C@H](O)[C@H]3O)c12 [psilocin-glucuronide, psilocin-O-glucuronide]							5-6 fold	roughly 220 min		20631	78.3	3.58 ± 1.2	3.67 ± 1.53					
CN(C)CCc1c[nH]c2cccc(O)c12 [psilocin]	105-108%	19.2	19.2 ± 4	2 to 2.33	61.2	2.12		2.33 ± 0.767 h						2 to 3	10 to 40	1.5 to 2	80	underwent extensive 0-glucuronidation
